A word on the AUC: it is the area under the concentration-time curve, a measure of exposure. Low values mean less exposure, high ones more exposure. In general, Cmax refers to the peak of the concentration-time curve. By half-life is commonly meant the time needed for the level to fall by half in the phase considered. Low readings indicate fast loss, high ones slow loss. The Tmax is the time at which the peak concentration occurs. Usually EC50 stands for the concentration at which the effect is half-maximal. By EC90 is commonly meant the concentration needed for an effect of 90%.

Data on four molecules can be found in paper PMC12829593 (Journal of cystic fibrosis : official journal of the …, 2025).

Data set [1] is classed as in vivo, human. As to conditions: mean (SD); for Cavg / Cmin / AUC / Cmax / half-life / Tmax: plasma; for Cavg / Cmin / Cmax: steady state; for AUC / Cmax / half-life / Tmax: human, oral; for AUC: AUCτ, AUC24 (ELX, TEZ) or AUC12 (IVA).
The next data set deals with CFTR. As to conditions: estimated from published data, compounds used concurrently; cited from earlier work.
The nature of data set [2]: Tacrolimus concentration in transplant participants. It counts as in vivo, human. As to conditions: Transplant (n=12), concurrent ETI, mean (SD).
The mark [3] stands for this setting: Transplant group (n=12), concomitant tacrolimus.
[4] abbreviates: T1/2, Non-transplant group (n=14).
Where [5] appears, read: T1/2, Transplant group (n=12), concomitant tacrolimus.

Structures are written as SMILES. Converted amounts (≈) assume the structure as drawn. Read-outs that look alike come from different tables or passages of the source.

With `Cc1nn(C)cc1S(=O)(=O)NC(=O)c1ccc(-n2ccc(OCC(C)(C)C(F)(F)F)n2)nc1N1C[C@@H](C)CC1(C)C` [Elexacaftor, elexacaftor], in data set [1] (Non-transplant group (n=14)), the CLss/F is recorded as 2.05(2.29) L/h, the V/F was 107(155), the Cavg is given as 6398(3233) ng/mL and the Cmin was 4327(2359) ng/mL. Also, in data set [1] (Non-transplant group (n=14)), the AUC is 154000 ng·h/mL, the concentration peaked (Cmax) at 9080 ng/mL and the Tmax was determined as 4.79 h. In addition, in data set [1] (setting [3]), the CLss/F is 1.23(0.79) L/h, the V/F is reported as 37.4(15.0), the Cavg is 8339(3152) ng/mL and the Cmin is recorded as 5632(2664) ng/mL. Further, in data set [1] (setting [3]), the AUC turned out to be 200000 ng·h/mL, the Cmax was determined as 11400 ng/mL and the Tmax is 7.33 h. In data set [1] (setting [4]), this molecule showed a half-life of 35 h. This molecule also had a half-life in data set [1] (setting [5]) of 23.6 h. In the data set with CFTR, the 50% effective concentration (EC50) was 0.5 µg/mL (≈ 0.837 µM) and the 90% effect concentration (EC90) is 4.5 µg/mL (≈ 7.53 µM).
Take `CC(C)(C)c1cc(C(C)(C)C)c(NC(=O)c2c[nH]c3ccccc3c2=O)cc1O` [Ivacaftor, ivacaftor]: in data set [1] (Non-transplant group (n=14)), the CLss/F was 27.9 (47.4) L/h, the V/F was 337 (441), the Cavg is 947 (507) ng/mL and the Cmin was 525 (325) ng/mL. Further, in data set [1] (Non-transplant group (n=14)), the AUC is 11400 ng·h/mL, the concentration peaked (Cmax) at 1380 ng/mL and the time to peak (Tmax) amounted to 4 h. In data set [1] (Non-transplant group (n=14), listed as IVA), this molecule showed a Cmin of 525 ng/mL. In data set [1] (setting [3]), the CLss/F is 19.9 (15.5) L/h, the V/F was 168 (71), the Cavg is given as 833 (342) ng/mL and the Cmin is reported as 467 (203) ng/mL. In data set [1] (setting [3]), the AUC worked out at 9900 ng·h/mL and the Tmax worked out at 4.6 h. The molecule further showed a half-life in data set [1] (setting [4]) of 9.4 h. The half-life in data set [1] (setting [5]) was 7.8 h. In the data set on CFTR, the EC50 was 0.04 µg/mL (≈ 0.102 µM) and the EC90 was 0.35 µg/mL (≈ 0.892 µM).
Take `CC(C)(CO)c1cc2cc(NC(=O)C3(c4ccc5c(c4)OC(F)(F)O5)CC3)c(F)cc2n1C[C@@H](O)CO` [Tezacaftor, tezacaftor]: in data set [1] (Non-transplant group (n=14)), the CLss/F is 1.53(0.83) L/h, the V/F is recorded as 37.1(24.4), the Cavg is recorded as 3294(1314) ng/mL and the Cmin was 1746(1050) ng/mL. In data set [1] (Non-transplant group (n=14)), the AUC was determined as 79000 ng·h/mL, the peak level (Cmax) was 7460 ng/mL and the Tmax worked out at 2.21 h. In addition, in data set [1] (setting [3]), the CLss/F is 1.54(1.07) L/h, the V/F is 47.5(59), the Cavg is 3403(1240) ng/mL and the Cmin is recorded as 2016(904) ng/mL. Moreover, in data set [1] (setting [3]), the area under the curve (AUC) amounted to 82000 ng·h/mL, the peak level (Cmax) was 6520 ng/mL and the Tmax was 3.08 h. The same molecule gave a half-life in data set [1] (setting [4]) of 19 h. The half-life in data set [1] (setting [5]) was 21 h. In addition, in the data set on CFTR, the EC50 is 0.4 µg/mL (≈ 0.768 µM) and the concentration for an effect of 90% (EC90) was 3.5 µg/mL (≈ 6.72 µM).
`C=CC[C@@H]1/C=C(\C)C[C@H](C)C[C@H](OC)[C@H]2O[C@@](O)(C(=O)C(=O)N3CCCC[C@H]3C(=O)O[C@H](/C(C)=C/[C@@H]3CC[C@@H](O)[C@H](OC)C3)[C@H](C)[C@@H](O)CC1=O)[C@H](C)C[C@@H]2OC` [Tacrolimus, tacrolimus]: the Tacrolimus concentration in data set [2] is reported as 6.5 (1.5) ng/mL.
